Experiment [1] has as its system TNFα production in human whole blood. Description: Inhibitory activity on LPS-induced TNFα production in human whole blood. Type of experiment: cell-based. To be noted: LPS stimulation, 37° C., 5 hours. Here is the method: Inhibitory activities of the arylmethylene urea derivatives according to the present invention to the production of TNFα induced by stimulation with a lipopolysaccharide (LPS) were investigated using human whole blood.
After mixing each of the compounds of the present invention with human blood in a 96-well flat-bottom plate, the lipopolysaccharide (LPS) was added and the mixture was allowed to react at 37° C. for 5 hours. After the reaction, the resulting mixture was centrifuged at room temperature for 15 minutes, and supernatant of the resultant was recovered. For the quantification of TNFα in the supernatant, human cytokine kit (CIS biointernational) was used.

For experiment [2], the system named is cyclophosphamide-induced cystitis rats. Description: Cyclophosphamide-induced overactive bladder (cystitis) model in rats, cystometrogram. Type of experiment: in vivo, SD rats. The note with it: i.v., from a dose of 3 mg/kg; FIG. 3-A. The method, then: Using cyclophosphamide-induced cystitis rats known as an overactive bladder (pollakiuria) model based on the hyperactivity of afferent sensory C-fibers, the effect of compounds on the cystometrograms was investigated.
Female SD rats were pre-treated with cyclophosphamide (150 mg/kg) intraperitoneally one day before (18 hours before) the assay in order to induce cystitis. On the next day, each of rats was anesthetized with an intrapertoneral injection of urethane (1.0 g/kg). Next, a small incision was formed in the hypogastrium, and both ureters were ligated, followed by forming small incision in the ureters at the side of the kidney. Then, the bladder apex was incised and a polyethylene tube filled with physiological saline was inserted and indwelled. The other end of the tube was equipped with a three-necked cock, and one of the necks thereof was connected to a pressure transducer for the measurement of intravesical pressure and the other neck was connected to an infusion pomp in order to infuse physiological saline. Thirty minutes after the surgery was completed, physiological saline was continuously infused (3.6 mL/hr) in order to obtain a continuous cystometrograms. One minute before the infusion, a solution of each test compound or the solvent thereof was administered from a caudal vein in a volume of 0.5 mL/kg. […]

Experiment [3] has as its system rhythmic bladder contractions. Description: Rhythmic bladder contractions model in anesthetized rats. The note with it: i.v., from a dose of 3 mg/kg; 10 minutes before and after administration; FIG. 1. Type of experiment: in vivo, SD rats. The source says:
Using anesthetized rat rhythmic bladder contractions model, the inhibitory effect of the arylmethylene urea derivatives of the present invention on the detrusor hyperreflexia was investigated.
Female SD rats were anesthetized with an intraperitoneal injection of urethane (1.0 g/kg). A polyethylene tube was inserted from external urethral orifice into the bladder and the tube was fixed by ligating. The other end of the tube was equipped with a three-necked cock, and one of the necks thereof was connected to a pressure transducer for the measurement of intravesical pressure and the other neck was connected to a syringe for the infusion of physiological saline into the bladder. Thirty minutes after the surgery was completed, physiological saline in appropriate volume was infused via the tube in order to induce rhythmic bladder contractions. After stable rhythmic bladder contractions were obtained, a solution of each test compound or the solvent thereof was administered from a caudal vein in a volume of 0.5 mL/kg, and the effect on the frequency of bladder contractions was investigated. As the test compounds, the compounds of Examples 2 and 9 were used.
In each of the figures, the ordinate indicates the number of rhythmic bladder contractions for 10 minutes before and after administration of the compound.

In the next experiment the test system is DSS-induced colitis. Description: Dextran sulfate sodium (DSS)-induced colitis model of mice, rectal bleeding score. Type of experiment: in vivo, BALB/c mice. The note with it: 30 mg/kg orally every day from Day 27 to Day 31. Here is the method:
(§1) Female BALB/c mice (Japan SLC) of 7 to 9 weeks old were allowed to freely drink 3 w/v % dextran sulfate sodium (DSS) for 5 to 7 days, and then to freely drink sterilized distilled water for 5 days. This procedure was repeated 3 times to induce colitis. The uninduced (background) group was allowed to freely drink sterilized distilled water. The compound described in Example 2 was orally administered to the mice at a dose of 30 mg/kg every day from Day 27 to Day 31 counted from the start of the test, and rectal bleeding was scored (0: occult blood-negative, 2: occult blood-positive, 4: apparent bleeding) by using the method described by Murthy et al (see, for example, Dig Dis Sci., 38, 1722 (1993)).
On the other hand, the same test as in Example 452 was repeated except that 1-(4-(pyridin-4-yloxy)benzyl)-3-(3-t-butylisoxazol-5-yl)urea (the structural formula thereof is shown below) which is a compound included in WO 04/037789 was used in place of the compound of Example 2. The score on Day 32 (the last day of the test) of the colitis-uninduced group was 0, while the score of the colitis-induced group rose to 1.2±0.2.
as §1, with “Example 10” for “Example 2”
On the other hand, the same test as in Example 453 was repeated except that 1-(4-(pyridin-4-yloxy)benzyl)-3-([…])urea (the structural formula thereof is shown below) which is a compound included in WO 04/037789 was used in place of the compound of Example 10. The score on Day 32 (the last day of the test) of the colitis-uninduced group was 0, while the score of the colitis-induced group rose to 1.2±0.2.

From patent US20100016319A1, “ARYLMETHYLENE UREA DERIVATIVE AND USE THEREOF” (TORAY INDUSTRIES, INC. a corporation of Japan, priority 2005, published 2010) come the findings set out here.

In turn, `Cc1ccc(-n2nc(C(C)(C)C)cc2NC(=O)NCc2ccccc2Oc2ccnc(N3CCOCC3)n2)cc1` [Example 2, 1-(2-(2-morpholinopyrimidin-4-yloxy)benzyl)-3-(3-t-butyl-1-p-tolyl-1H-pyrazol-5-yl)urea] gave an IC50 in experiment [1] of 720 nM. Moreover, in experiment [2], the “effect on the increase in the frequency of urination (voiding episodes during 20 minutes)” value was “dose-dependently reduced the increase in the frequency of urination”. For the same compound, the “effect on the number of rhythmic bladder contractions” value in experiment [3] is listed as “inhibited the rhythmic bladder contractions dose-dependently”. In addition, the “amelioration of symptoms / improvement in the rectal bleeding score (in words)” value with DSS-induced colitis (Day 32) was “apparent amelioration of symptoms was observed”. The “rectal bleeding score on Day 32 (0: occult blood-negative, 2: occult blood-positive, 4: apparent bleeding)” value in the experiment on DSS-induced colitis (female BALB/c mice, 3 w/v % DSS) is listed as 0.2±0.1.
